Converted amounts (≈) assume the structure as drawn. Where two headings read alike, the source gives them in different places.
What was measured:
[1] = target: T1, full-length beta-Catenin (Uniprot ID P35222) (Homo sapiens, UniProt P35222); assay: Fluorescence polarization IC50 (beta-catenin / 5FAM-TCF4 10-53 competition); assay type: binding
T1 construct: 10 nM full-length beta-Catenin (Uniprot ID P35222)
T1 sequence (P35222 1-781): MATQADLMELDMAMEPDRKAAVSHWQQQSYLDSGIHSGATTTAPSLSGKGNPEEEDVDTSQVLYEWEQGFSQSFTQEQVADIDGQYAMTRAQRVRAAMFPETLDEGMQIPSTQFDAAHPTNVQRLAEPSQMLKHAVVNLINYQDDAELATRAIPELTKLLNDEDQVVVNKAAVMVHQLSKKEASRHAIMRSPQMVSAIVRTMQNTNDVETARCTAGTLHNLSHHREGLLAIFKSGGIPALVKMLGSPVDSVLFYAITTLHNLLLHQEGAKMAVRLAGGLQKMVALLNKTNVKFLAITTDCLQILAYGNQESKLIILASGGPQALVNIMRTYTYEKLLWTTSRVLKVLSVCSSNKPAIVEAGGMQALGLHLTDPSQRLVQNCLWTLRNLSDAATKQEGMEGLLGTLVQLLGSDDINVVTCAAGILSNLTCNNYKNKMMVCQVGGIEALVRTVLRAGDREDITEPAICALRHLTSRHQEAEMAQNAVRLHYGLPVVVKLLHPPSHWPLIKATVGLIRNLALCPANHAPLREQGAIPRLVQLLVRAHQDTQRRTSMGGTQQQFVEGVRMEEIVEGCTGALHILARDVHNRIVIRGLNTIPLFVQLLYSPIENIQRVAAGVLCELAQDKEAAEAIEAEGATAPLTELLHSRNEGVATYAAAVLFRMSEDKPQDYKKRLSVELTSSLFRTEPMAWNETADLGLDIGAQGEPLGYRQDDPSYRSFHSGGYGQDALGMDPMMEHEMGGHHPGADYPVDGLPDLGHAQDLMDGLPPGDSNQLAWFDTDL

CHI Log D procedure = assay type: physicochemical
Solubility in PBS = assay type: physicochemical
Method in brief: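 Steps: ultracentrifuge the peptide PBS solution, inject the supernatant on HPLC, inject a 50 μM peptide DMSO solution as reference, then calculate solubility as area ratio (PBS/DMSO) × 50 uM.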

[2] = read-out: FP EC50, fluorescence polarization, beta-catenin
[3] = FP EC50 (nM), fluorescence polarization, beta-catenin

| SMILES | IC50 ([1]; read-out: beta-Catenin FP IC50) | chromatographic logD (CHI Log D procedure; pH 7.4, CHI Log D) | Solubility (Solubility in PBS; Solubility (uM)) | Solubility (Solubility in PBS) | IC50 [1, 2] | CHI Log D (CHI Log D procedure; pH 7.4) | IC50 [1, 3] | chromatographic logD (CHI Log D procedure; pH 7.4) |
| --- | --- | --- | --- | --- | --- | --- | --- | --- |
| CC[C@H](C)[C@@H]1NC(=O)[C@H](C)NC(=O)[C@H](CN(CC(=O)O)CC(F)(F)F)NC(=O)[C@H](CC(=O)O)NC(=O)C2(CCCC=CCCCOC(=O)N3CC[C@@](C(=O)N[C@@H](Cc4ccccc4Cl)C(=O)N[C@@H](Cc4csc5ccccc45)C(=O)N[C@@H](CCC(N)=O)C(N)=O)(C3)NC(=O)[C@H](CC(N)=O)NC(=O)[C@H](Cc3ccccc3)NC1=O)CCCC=CC[C@]1(CCCN1C(C)=O)C(=O)N[C@@H](CC(=O)O)C(=O)N[C@@H](CC(C)(C)C)C(=O)N2 (stereo partly drawn) [I-1005, Ac-PL3-Asp-Npg-B5-Asp-TfeGA-Ala-Ile-Phe-Asn-PyrS2-2C1F-BztA-Gln-NH2] | 42 nM | 2.64 |  | 10 µM (≈ 21 µg/mL) |  |  |  |  |
| CC(=O)N1CCC[C@]12CC=CCCCC1(CCCC=CCCCOC(=O)N3CC[C@@](C(=O)N[C@@H](Cc4ccccc4F)C(=O)N[C@@H](Cc4csc5ccccc45)C(=O)N[C@@H](CO)C(N)=O)(C3)NC(=O)[C@H]([C@@H](C)O)NC(=O)[C@H](Cc3ccccc3)NC(=O)[C@H](C)NC(=O)[C@H](C)NC(=O)[C@H](CC(N)=O)NC(=O)[C@H](CC(=O)O)NC1=O)NC(=O)[C@H](CC(C)(C)C)NC(=O)[C@H](CC(=O)O)NC2=O (stereo partly drawn) [I-1024, Ac-PL3-Asp-Npg-B5-Asp-Asn-Ala-Ala-Phe-Thr-PyrS2-2FF-BztA-Ser-NH2] | 43 nM | 2.45 | 14 µM (≈ 26.3 µg/mL) |  |  |  |  |  |
| C[C@@H]1NC(=O)[C@H](C)NC(=O)[C@H](CC(=O)O)NC(=O)[C@H](CC(=O)O)NC(=O)C2(CCCC=CCCCCCC[C@@](C)(C(=O)N[C@@H](Cc3ccsc3)C(=O)N[C@@H](Cc3csc4ccccc34)C(=O)N[C@@H](CCC(N)=O)C(N)=O)NC(=O)[C@H](CC(N)=O)NC(=O)[C@H](Cc3ccccc3)NC1=O)CCCC=CC[C@]1(CCCN1C(=O)CN=[N+]=[N-])C(=O)N[C@@H](CC(=O)O)C(=O)N[C@@H](CC(C)(C)C)C(=O)N2 (stereo partly drawn) [I-1052, AzAc-PL3-Asp-Npg-B5-Asp-Asp-Ala-Ala-Phe-Asn-S8-3Thi-BztA-Gln-NH2] |  |  |  | 33 µM (≈ 63.2 µg/mL) | 9 nM | 2.334 |  |  |
| C[C@@H]1NC(=O)[C@H](C)NC(=O)[C@H](CC(=O)O)NC(=O)[C@H](CC(=O)O)NC(=O)C2(CCCC=CCCCOC(=O)N3CC[C@@](C(=O)N[C@@H](Cc4ccccc4)C(=O)N[C@@H](Cc4csc5ccccc45)C(=O)N[C@@H](Cc4c[nH]cn4)C(N)=O)(C3)NC(=O)[C@H](CC(N)=O)NC(=O)[C@H](Cc3ccccc3)NC1=O)CCCC=CC[C@]1(CCCN1C(=O)CN=[N+]=[N-])C(=O)N[C@@H](CC(=O)O)C(=O)N[C@@H](CC(C)(C)C)C(=O)N2 (stereo partly drawn) [I-1055, AzAc-PL3-Asp-Npg-B5-Asp-Asp-Ala-Ala-Phe-Asn-PyrS2-Phe-BztA-His-NH2] |  |  |  | 10 µM (≈ 19.6 µg/mL) |  |  | 7 nM | 2.11 |
| C[C@@H]1NC(=O)[C@H](C)NC(=O)[C@H](CN(CC(=O)O)CC(F)(F)F)NC(=O)[C@H](Cc2ccsc2)NC(=O)C2(CCCC=CCCCOC(=O)N3CC[C@@](C(=O)N[C@@H](CC(=O)O)C(=O)N[C@@H](Cc4csc5ccccc45)C(=O)N[C@@H](CCC(N)=O)C(N)=O)(C3)NC(=O)[C@H](CC(N)=O)NC(=O)[C@H](Cc3ccccc3)NC1=O)CCCC=CC[C@]1(CCCN1C(=O)CN=[N+]=[N-])C(=O)N[C@@H](CC(=O)O)C(=O)N[C@@H](CC(C)(C)C)C(=O)N2 (stereo partly drawn) [I-1056, AzAc-PL3-Asp-Npg-B5-3Thi-TfeGA-Ala-Ala-Phe-Asn-PyrS2-Asp-BztA-Gln-NH2] |  |  |  | 41 µM (≈ 84.9 µg/mL) | 6490 nM | 1.929 |  |  |
| C[C@@H]1NC(=O)[C@H](C)NC(=O)[C@H](CN(CC(=O)O)CC(F)(F)F)NC(=O)[C@H](Cc2ccsc2)NC(=O)C2(CCCC=CCCCOC(=O)N3CC[C@@](C(=O)N[C@@H](CC(=O)O)C(=O)N[C@@H](Cc4csc5ccccc45)C(=O)N[C@@H](CCC(N)=O)C(N)=O)(C3)NC(=O)[C@H](CC(N)=O)NC(=O)[C@H](Cc3ccccc3)NC1=O)CCCC=CC[C@]1(CCCN1C(=O)CN=[N+]=[N-])C(=O)N[C@@H](CC(=O)O)C(=O)N[C@@H](CC(C)(C)C)C(=O)N2 (stereo partly drawn) [I-1057, AzAc-PL3-Asp-Npg-B5-3Thi-TfeGA-Ala-Ala-Phe-Asn-PyrS2-Asp-BztA-Gln-NH2] |  |  |  | 50 µM (≈ 104 µg/mL) | 6640 nM | 1.92 |  |  |
| C[C@@H]1NC(=O)[C@H](C)NC(=O)[C@H](CC(=O)O)NC(=O)[C@H](CC(=O)O)NC(=O)C2(CCCC=CCCCOC(=O)N3CC[C@@](C(=O)N[C@@H](Cc4ccsc4)C(=O)N[C@@H](Cc4csc5ccccc45)C(=O)N[C@@H](C(N)=O)[C@H](C)O)(C3)NC(=O)[C@H](CC(N)=O)NC(=O)[C@H](Cc3ccccc3)NC1=O)CCCC=CC[C@]1(CCCN1C(=O)CN=[N+]=[N-])C(=O)N[C@@H](CC(=O)O)C(=O)N[C@@H](CC(C)(C)C)C(=O)N2 (stereo partly drawn) [I-1058, AzAc-PL3-Asp-Npg-B5-Asp-Asp-Ala-Ala-Phe-Asn-PyrS2-3Thi-BztA-dThr-NH2] |  |  |  | 42 µM (≈ 81.2 µg/mL) |  |  | 14 nM | 2.25 |

More lines, main results first:

| IC50 ([1]; read-out: beta-Catenin FP IC50) | chromatographic logD (CHI Log D procedure; pH 7.4, CHI Log D) | Solubility (Solubility in PBS; Solubility (uM)) | SMILES | Solubility (Solubility in PBS) | IC50 [1, 2] | CHI Log D (CHI Log D procedure; pH 7.4) | IC50 [1, 3] | chromatographic logD (CHI Log D procedure; pH 7.4) |
| --- | --- | --- | --- | --- | --- | --- | --- | --- |
| 52 nM | 2.49 |  | CC(=O)N1CCC[C@]12CC=CCCCC1(CCCC=CCCCOC(=O)N3CC[C@@](C(=O)N[C@@H](Cc4ccccc4Cl)C(=O)N[C@@H](Cc4csc5ccccc45)C(=O)N[C@@H](CO)C(N)=O)(C3)NC(=O)[C@H](CO)NC(=O)[C@H](Cc3ccccc3)NC(=O)[C@H](C)NC(=O)[C@H](C)NC(=O)[C@H](CC(N)=O)NC(=O)[C@H](CC(=O)O)NC1=O)NC(=O)[C@H](CC(C)(C)C)NC(=O)[C@H](CC(=O)O)NC2=O (stereo partly drawn) [I-1020, Ac-PL3-Asp-Npg-B5-Asp-Asn-Ala-Ala-Phe-Ser-PyrS2-2C1F-BztA-Ser-NH2] | 10 µM (≈ 18.8 µg/mL) |  |  |  |  |
| 101 nM | 2.73 |  | CC(=O)N1CCC[C@]12CC=CCCCC1(CCCC=CCCCOC(=O)N3CC[C@@](C(=O)N[C@@H](Cc4ccccc4Cl)C(=O)N[C@@H](Cc4csc5ccccc45)C(=O)N[C@@H](C(N)=O)[C@H](C)O)(C3)NC(=O)[C@H](Cc3ccccc3)NC(=O)[C@H](Cc3ccccc3)NC(=O)[C@H](C)NC(=O)[C@H](C)NC(=O)[C@H](CCC(=O)O)NC(=O)[C@H](CC(=O)O)NC1=O)NC(=O)[C@H](CC(C)(C)C)NC(=O)[C@H](CC(=O)O)NC2=O (stereo partly drawn) [I-1038, Ac-PL3-Asp-Npg-B5-Asp-Glu-Ala-Ala-Phe-Phe-PyrS2-2C1F-BztA-dThr-NH2] | 10 µM (≈ 19.7 µg/mL) |  |  |  |  |
| 57 nM | 2.65 | 20 µM (≈ 38.7 µg/mL) | CC(=O)N1CCC[C@]12CC=CCCCC1(CCCC=CCCCOC(=O)N3CC[C@@](C(=O)N[C@@H](Cc4ccccc4Cl)C(=O)N[C@@H](Cc4csc5ccccc45)C(=O)N[C@@H](C(N)=O)[C@H](C)O)(C3)NC(=O)[C@H](CC(C)C)NC(=O)[C@H](Cc3ccccc3)NC(=O)[C@H](C)NC(=O)[C@H](C)NC(=O)[C@H](CCC(=O)O)NC(=O)[C@H](CC(=O)O)NC1=O)NC(=O)[C@H](CC(C)(C)C)NC(=O)[C@H](CC(=O)O)NC2=O (stereo partly drawn) [I-1039, Ac-PL3-Asp-Npg-B5-Asp-Glu-Ala-Ala-Phe-Leu-PyrS2-2C1F-BztA-dThr-NH2] |  |  |  |  |  |
| 6 nM | 2.29 | 48 µM (≈ 91.8 µg/mL) | CC(=O)N1CCC[C@]12CC=CCCCC1(CCCC=CCCCOC(=O)N3CC[C@@](C(=O)N[C@@H](Cc4ccccc4Cl)C(=O)N[C@@H](Cc4csc5ccccc45)C(=O)N[C@@H](CO)C(N)=O)(C3)NC(=O)[C@H]([C@@H](C)O)NC(=O)[C@H](Cc3ccccc3)NC(=O)[C@H](C)NC(=O)[C@H](C)NC(=O)[C@H](CC(=O)O)NC(=O)[C@H](CC(=O)O)NC1=O)NC(=O)[C@H](Cc1ccccc1)NC(=O)[C@H](CC(=O)O)NC2=O (stereo partly drawn) [I-1049, Ac-PL3-Asp-Phe-B5-Asp-Asp-Ala-Ala-Phe-Thr-PyrS2-2C1F-BztA-Ser-NH2] |  |  |  |  |  |

Source: patent US20240116985A1, “STAPLED PEPTIDES AND METHODS THEREOF” (priority 2020, published 2024)
